Measured values reported in US20230065953A1, “NOVEL HETEROARYL-TRIAZOLE COMPOUNDS AS PESTICIDES” (Bayer Aktiengesellschaft, priority 2019, published 2023).

Columns and labels:
Assay type in all cases: in vivo
[1] = system: larvae of the banded cucumber beetle (Diabrotica balteata); test: Diabrotica balteata spray test; conditions: 168 h, 100 g/ha (=32 μg/well), wheat seeds, after 7 days, read-out: efficacy (seedling growth)
Description: Diabrotica Balteata—Spray Test
• Solvent: 78.0 parts by weight of acetone • 1.5 parts by weight of dimethylformamide • Emulsifier: alkylarylpolyglycol ether
Further test concentrations are prepared by dilution with emulsifier containing water.
Soaked wheat seeds (Triticum aestivum) are placed in a multiple well plate filled with agar and some water and are incubated for 1 day to germinate (5 seeds per well). The germinated wheat seeds are sprayed with a test solution containing the desired concentration of the active ingredient. Afterwards each unit is infected with 10-20 larvae of the banded cucumber beetle (Diabrotica balteata).
After 7 days efficacy in % is determined.

[2] = system: fall armyworm larvae (Spodoptera frugiperda); test: Spodoptera frugiperda spray test (maize leaf sections); conditions: 168 h
Description: Spodoptera frugiperda—Spray Test • Solvent: 78.0 parts by weight acetone • 1.5 parts by weight dimethylformamide • Emulsifier: alkylarylpolyglycol ether
(§1) To produce a suitable preparation of active compound, 1 part by weight of active compound is mixed with the stated amount of solvents and is diluted with water, containing an emulsifier concentration of 1000 ppm, to the desired concentration. Further test concentrations are prepared by dilution with emulsifier containing water.
Maize (Zea mays) leaf sections are sprayed with a preparation of the active ingredient of the desired concentration. Once dry, the leaf sections are infested with fall armyworm larvae (Spodoptera frugiperda).
After 7 days mortality in % is determined. 100% means all caterpillars have been killed and 0% means none of the caterpillars have been killed.

[3] = system: larvae of the southern green stink bug (Nezara viridula); test: Nezara viridula spray test; conditions: in Hordeum vulgare, 96 h
Description: Nezara viridula—Spray Test • Solvent: 78.0 parts by weight of acetone • 1.5 parts by weight of dimethylformamide • Emulsifier: alkylarylpolyglycol ether
as §1, with “solvent,” for “solvents”, “and the concentrate” for “and”
Barley plants (Hordeum vulgare) are sprayed with a test solution containing the desired concentration of the active ingredient and are infested with larvae of the southern green stink bug (Nezara viridula).
After 4 days mortality in % is determined. 100% means all the stink bugs have been killed; 0% means none of the stink bugs have been killed.

[4] = system: green peach aphid (Myzus persicae); test: Myzus persicae spray test; conditions: foliar, 120 h, Chinese cabbage leaf disks, after 5 days
Description: Myzus persicae—Spray Test • Solvent: 78.0 parts by weight acetone • 1.5 parts by weight dimethylformamide • Emulsifier: alkylarylpolyglycol ether
as §1
Chinese cabbage (Brassica pekinensis) leaf disks infected with all instars of the green peach aphid (Myzus persicae), are sprayed with a preparation of the active ingredient of the desired concentration.
After 5 days mortality in % is determined. 100% means all aphids have been killed and 0% means none of the aphids have been killed.

SMILES	pest or weed control at 32 µg/disc, 100 g/ha [1]	mortality at 100 g/ha [2]	mortality at 500 g/ha [3]	mortality at 100 g/ha [3]	mortality at 100 g/ha [4]
C[C@H](NC(=O)c1cc(Cl)cc(S(=O)(=O)C(F)F)c1)c1ncnn1-c1ncc(C#N)s1 [I-134]	100%	100%	100%	–	–
C[C@H](NC(=O)c1cc(OC(F)F)cc(S(=O)(=O)C(F)F)c1)c1ncnn1-c1ncc(C#N)s1 [I-136]	100%	100%	100%	100%	–
CNC(=O)c1cnc(-n2ncnc2[C@H](C)NC(=O)c2cc(C(F)F)cc(C(F)F)c2)s1 [I-137]	100%	100%	100%	–	90%
C[C@H](NC(=O)c1cc(OC(F)F)cc(OC(F)F)c1)c1ncnn1-c1ncc(C(=O)N(C)C2CC2)s1 [I-148]	100%	100%	–	–	90%
C[C@H](NC(=O)c1cc(OC(F)(F)F)cc(C2CC2)c1)c1ncnn1-c1ncc(C(=O)N(C)C2CC2)s1 [I-152]	100%	100%	–	–	90%
C[C@H](NC(=O)c1cc(Br)cc(OC(F)F)c1)c1ncnn1-c1ncc(C(=O)N(C)C2CC2)s1 [I-154]	100%	100%	–	–	90%
C[C@H](NC(=O)c1cc(Cl)cc(OC(F)(F)F)c1)c1ncnn1-c1ncc(C(=O)N(C)C2CC2)s1 [I-155]	100%	100%	–	–	90%
Cc1nc([C@H](C)NC(=O)c2cc(Cl)cc(S(=O)(=O)C(F)F)c2)n(-c2ncc(C#N)s2)n1 [I-158]	100%	100%	90%	–	–
Cc1nc([C@H](C)NC(=O)c2cc(OC(F)(F)F)cc(S(=O)(=O)C(F)F)c2)n(-c2ncc(C#N)s2)n1 [I-161]	100%	100%	–	–	100%
C[C@H](NC(=O)c1cc(C(F)(F)F)cc(Cl)n1)c1ncnn1-c1ncc(C#N)s1 [I-166]	100%	100%	100%	–	–
C[C@H](NC(=O)c1cc(Cl)cc(Cl)n1)c1ncnn1-c1ncc(C#N)s1 [I-167]	100%	–	100%	–	–
C[C@H](NC(=O)c1cc(Cl)nc(C(F)(F)F)c1)c1ncnn1-c1ncc(C#N)s1 [I-168]	100%	100%	100%	–	–
C[C@H](NC(=O)c1cc(OC(F)(F)F)cc(C2(C#N)CC2)c1)c1nc(C2CC2)nn1-c1ncc(C#N)s1 [I-169]	100%	100%	100%	–	–
CNC(=O)c1cnc(-n2ncnc2[C@H](C)NC(=O)c2cc(OC(F)(F)F)cc(S(=O)(=O)C(F)F)c2)s1 [I-170]	100%	100%	100%	–	–
C[C@H](NC(=O)c1cc(OC(F)(F)F)cc(S(=O)(=O)C(F)F)c1)c1ncnn1-c1ncc(C(=O)N(C)C)s1 [I-171]	100%	100%	100%	–	100%
CNC(=O)c1cnc(-n2nc(C3CC3)nc2[C@H](C)NC(=O)c2cc(OC(F)(F)F)cc(C3CC3)c2)s1 [I-173]	100%	–	100%	–	–
Cc1nc([C@H](C)NC(=O)c2cncc(OC(F)(F)F)c2)n(-c2ncc(C#N)s2)n1 [I-175]	–	–	100%	–	–
